Data published in PubChem BioAssay (NCI).
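Tested at 5 concentrations; 48 h exposure; 96-well plates; endpoints linearly interpolated, else capped at highest concentration. Abbreviation: GI50, concentration required for 50% inhibition of growth. Definition used: TGI = concentration required for complete inhibition of growth.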

Experiments:
Assay in all cases: DTP human tumour cell line panel, 48 h
786-0 renal = tested on: 786-0 renal
A498 renal = tested on: A498 renal
A549 NSCLC = tested on: A549 NSCLC
ACHN renal = tested on: ACHN renal
BT-549 breast = tested on: BT-549 breast
CAKI-1 renal = tested on: CAKI-1 renal
CCRF-CEM leukemia = tested on: CCRF-CEM leukemia
COLO 205 colon = tested on: COLO 205 colon
DU-145 prostate = tested on: DU-145 prostate
EKVX NSCLC = tested on: EKVX NSCLC
HCC-2998 colon = tested on: HCC-2998 colon
HCT-116 colon = tested on: HCT-116 colon
HCT-15 colon = tested on: HCT-15 colon
HL-60(TB) leukemia = tested on: HL-60(TB) leukemia
HOP-62 NSCLC = tested on: HOP-62 NSCLC
HOP-92 NSCLC = tested on: HOP-92 NSCLC
HS 578T breast = tested on: HS 578T breast
HT29 colon = tested on: HT29 colon
IGROV1 ovarian = tested on: IGROV1 ovarian
K-562 leukemia = tested on: K-562 leukemia
KM12 colon = tested on: KM12 colon
LOX IMVI melanoma = tested on: LOX IMVI melanoma
M14 melanoma = tested on: M14 melanoma
MALME-3M melanoma = tested on: MALME-3M melanoma
MCF7 breast = tested on: MCF7 breast
MDA-MB-231 breast = tested on: MDA-MB-231 breast
MDA-MB-435 = tested on: MDA-MB-435
MOLT-4 leukemia = tested on: MOLT-4 leukemia
NCI-H226 lung = tested on: NCI-H226 lung
NCI-H23 lung = tested on: NCI-H23 lung
NCI-H460 lung = tested on: NCI-H460 lung
NCI-H522 lung = tested on: NCI-H522 lung
NCI/ADR-RES ovarian = tested on: NCI/ADR-RES ovarian
OVCAR-3 ovarian = tested on: OVCAR-3 ovarian
OVCAR-4 ovarian = tested on: OVCAR-4 ovarian
OVCAR-5 ovarian = tested on: OVCAR-5 ovarian
OVCAR-8 ovarian = tested on: OVCAR-8 ovarian
PC-3 prostate = tested on: PC-3 prostate
RPMI-8226 leukemia = tested on: RPMI-8226 leukemia
RXF 393 renal = tested on: RXF 393 renal
SF-268 CNS = tested on: SF-268 CNS
SF-295 CNS = tested on: SF-295 CNS
SF-539 CNS = tested on: SF-539 CNS
SK-MEL-2 melanoma = tested on: SK-MEL-2 melanoma
SK-MEL-28 melanoma = tested on: SK-MEL-28 melanoma
SK-MEL-5 melanoma = tested on: SK-MEL-5 melanoma
SK-OV-3 ovarian = tested on: SK-OV-3 ovarian
SN12C renal = tested on: SN12C renal
SNB-19 CNS = tested on: SNB-19 CNS
SNB-75 CNS = tested on: SNB-75 CNS
SR leukemia = tested on: SR leukemia
SW-620 colon = tested on: SW-620 colon
T-47D breast = tested on: T-47D breast
TK-10 renal = tested on: TK-10 renal
U251 CNS = tested on: U251 CNS
UACC-257 melanoma = tested on: UACC-257 melanoma
UACC-62 melanoma = tested on: UACC-62 melanoma
UO-31 renal = tested on: UO-31 renal

With `CS(=O)(=O)Nc1cc(-c2ccc3ncc(C#N)c(NCc4ccccc4)c3c2)cnc1Cl` the GI50 (786-0 renal) was 350 nM, the TGI (786-0 renal) was greater than 45400 nM and the GI50 (A498 renal) was 101 nM. For the same compound, the TGI (A498 renal) was 498 nM, the GI50 (A549 NSCLC) was 500 nM and the TGI (A549 NSCLC) was 7740 nM. For the same compound, the GI50 (ACHN renal) was 434 nM, the TGI (ACHN renal) was greater than 46300 nM and the GI50 (BT-549 breast) was 155 nM. It also gave a TGI (BT-549 breast) of 2040 nM, a GI50 (CAKI-1 renal) of 186 nM and a TGI (CAKI-1 renal) of 2370 nM. For the same compound, the GI50 (CCRF-CEM leukemia) was 117 nM, the TGI (CCRF-CEM leukemia) was 15200 nM and the GI50 (COLO 205 colon) was 353 nM. It also gave a TGI (COLO 205 colon) of 2870 nM, a GI50 (DU-145 prostate) of 322 nM and a TGI (DU-145 prostate) of 19200 nM. It also gave a GI50 (EKVX NSCLC) of 340 nM, a TGI (EKVX NSCLC) of 3860 nM and a GI50 (HCC-2998 colon) of 325 nM. The TGI (HCC-2998 colon) was 6420 nM, the GI50 (HCT-116 colon) was 334 nM and the TGI (HCT-116 colon) was 4360 nM. It also gave a GI50 (HCT-15 colon) of 268 nM, a TGI (HCT-15 colon) of 11400 nM and a GI50 (HL-60(TB) leukemia) of 294 nM. It also gave a TGI (HL-60(TB) leukemia) of 7520 nM, a GI50 (HOP-62 NSCLC) of 270 nM and a TGI (HOP-62 NSCLC) of 9120 nM. The GI50 (HOP-92 NSCLC) was 33.7 nM, the TGI (HOP-92 NSCLC) was 399 nM and the GI50 (HS 578T breast) was 65 nM. For the same compound, the TGI (HS 578T breast) was 521 nM, the GI50 (HT29 colon) was 463 nM and the TGI (HT29 colon) was 25000 nM. For the same compound, the GI50 (IGROV1 ovarian) was 89.6 nM, the TGI (IGROV1 ovarian) was 667 nM and the GI50 (K-562 leukemia) was 311 nM. The TGI (K-562 leukemia) was greater than 100000 nM, the GI50 (KM12 colon) was 431 nM and the TGI (KM12 colon) was 4980 nM. The GI50 (LOX IMVI melanoma) was 214 nM, the TGI (LOX IMVI melanoma) was 1110 nM and the GI50 (M14 melanoma) was 178 nM. The TGI (M14 melanoma) was 10800 nM, the GI50 (MALME-3M melanoma) was 79 nM and the TGI (MALME-3M melanoma) was 626 nM. For the same compound, the GI50 (MCF7 breast) was 63.7 nM, the TGI (MCF7 breast) was 3750 nM and the GI50 (MDA-MB-231 breast) was 331 nM. The TGI (MDA-MB-231 breast) was 6370 nM, the GI50 (MDA-MB-435) was 299 nM and the TGI (MDA-MB-435) was 8270 nM. The GI50 (MOLT-4 leukemia) was 177 nM, the TGI (MOLT-4 leukemia) was 3940 nM and the GI50 (NCI-H226 lung) was 347 nM. The TGI (NCI-H226 lung) was 18000 nM, the GI50 (NCI-H23 lung) was 291 nM and the TGI (NCI-H23 lung) was 15600 nM. The GI50 (NCI-H460 lung) was 371 nM, the TGI (NCI-H460 lung) was greater than 100000 nM and the GI50 (NCI-H522 lung) was 281 nM. The TGI (NCI-H522 lung) was 13900 nM, the GI50 (NCI/ADR-RES ovarian) was 1700 nM and the TGI (NCI/ADR-RES ovarian) was 28900 nM. It also gave a GI50 (OVCAR-3 ovarian) of 254 nM, a TGI (OVCAR-3 ovarian) of 2790 nM and a GI50 (OVCAR-4 ovarian) of 325 nM. It also gave a TGI (OVCAR-4 ovarian) greater than 42700 nM, a GI50 (OVCAR-5 ovarian) of 440 nM and a TGI (OVCAR-5 ovarian) of 21100 nM. The GI50 (OVCAR-8 ovarian) was 364 nM, the TGI (OVCAR-8 ovarian) was greater than 39400 nM and the GI50 (PC-3 prostate) was 158 nM. It also gave a TGI (PC-3 prostate) of 2750 nM, a GI50 (RPMI-8226 leukemia) of 212 nM and a TGI (RPMI-8226 leukemia) of 1070 nM. For the same compound, the GI50 (RXF 393 renal) was 38.4 nM, the TGI (RXF 393 renal) was 435 nM and the GI50 (SF-268 CNS) was 197 nM. For the same compound, the TGI (SF-268 CNS) was 5220 nM, the GI50 (SF-295 CNS) was 192 nM and the TGI (SF-295 CNS) was 1740 nM. For the same compound, the GI50 (SF-539 CNS) was 205 nM, the TGI (SF-539 CNS) was 1700 nM and the GI50 (SK-MEL-2 melanoma) was 195 nM. The TGI (SK-MEL-2 melanoma) was 975 nM, the GI50 (SK-MEL-28 melanoma) was 175 nM and the TGI (SK-MEL-28 melanoma) was 10200 nM. It also gave a GI50 (SK-MEL-5 melanoma) of 146 nM, a TGI (SK-MEL-5 melanoma) of 344 nM and a GI50 (SK-OV-3 ovarian) of 259 nM. For the same compound, the TGI (SK-OV-3 ovarian) was 1610 nM, the GI50 (SN12C renal) was 233 nM and the TGI (SN12C renal) was greater than 49500 nM. The GI50 (SNB-19 CNS) was 268 nM, the TGI (SNB-19 CNS) was 11600 nM and the GI50 (SNB-75 CNS) was 38.2 nM. It also gave a TGI (SNB-75 CNS) of 334 nM, a GI50 (SR leukemia) of 164 nM and a TGI (SR leukemia) of 7910 nM. It also gave a GI50 (SW-620 colon) of 351 nM, a TGI (SW-620 colon) greater than 36100 nM and a GI50 (T-47D breast) of 52.1 nM. It also gave a TGI (T-47D breast) of 2670 nM, a GI50 (TK-10 renal) of 190 nM and a TGI (TK-10 renal) of 1970 nM. It also gave a GI50 (U251 CNS) of 218 nM, a TGI (U251 CNS) of 12700 nM and a GI50 (UACC-257 melanoma) of 327 nM. For the same compound, the TGI (UACC-257 melanoma) was 6320 nM, the GI50 (UACC-62 melanoma) was 76.4 nM and the TGI (UACC-62 melanoma) was 815 nM. It also gave a GI50 (UO-31 renal) of 111 nM and a TGI (UO-31 renal) of 3170 nM.
